Columns and labels:
[1] = test system: DL rats (dual striatal-dopaminergic, cortical cholinergic system lesions); assay: MCMCT rotating rod with active distractor (water retrieval); format: in vivo, Sprague Dawley rats; details: for number of animals that retrieved water in at least one trial: of 14 DL rats per group, licking water for at least 1 s, DL/VEH 9, SH/VEH 13
Description: (§1) Of the 70 rats, 56 (28 females and 28 males) received dual striatal-dopaminergic, corticalcholinergic system lesions (DL) and were randomly assigned to 4 treatment conditions after surgeries (n=14/group, 7/sex). 14 rats (7/sex) received sham lesions. 6-OHDA was delivered bilaterally to dopamine terminals in the dorsal striatum (Sigma-Aldrich; 6.0 μg/2 μL/infusion, bolus; dissolved in 0.9% NaCl with 0.1% ascorbic acid; two infusion sites per hemisphere: AP+1.2 and +0.2 mm; ML ±2.5 and ±3.0 mm relative to bregma; DV −4.8 and −5.0 mm from skull). Desipramine hydrochloride (10 mg/kg; i.p.; Sigma-Aldrich) was administered to rats receiving 6-OHDA infusions 30 min prior to surgeries for protection of noradrenergic neurons^4. Basal forebrain cholinergic neurons situated in the nucleus basalis and substantia innominate were targeted with immunotoxin 192 IgG-saporin (Advanced Targeting Systems) in aCSF infused bilaterally (120 ng/μL; 0.5 μL/hemisphere; AP −0.8; ML ±2.9; DV −7.8). Sham rats received equal volumes of 0.9% NaCl with 0.1% ascorbic acid (striatum) and aCSF (basal forebrain) without neurotoxins.
Two distractors were presented during traversals. First, a passive doorframe distractor, comprised of a 46.0×39.4 cm surface with a door-frame shape cutout of 20 cm×10 cm made of foam core, was incorporated into the MCMCT test sequence. The distractor was placed at the midway point along the beam (100 cm mark) with side jambs 3.5 cm from the rod surface on both sides and the top border of the doorframe cutout 11 cm above the flat rod surface. […] Second, animals were tested with an active distractor task in which a water reward (3 drops of water; ˜150 μL) was presented on a platform (4.9 cm diameter) during traversals. The platform was also placed at the 100 cm mark, with 2-3 cm separating the rod and the platform.
Rats were first acclimated to the task in 4 shaping trials (test days 8 and 9). In these trials rats were placed directly on the stationary (non-rotating) rod adjacent to the platform (approximately midway across the beam) and allowed to drink the water from the platform. After shaping trials, rats underwent 4 test trials in which the rats performed unassisted traversals of the rotating rod (alternating directions) with presentations of water rewards. In two other test days (10 and 12), rats performed 10 test runs per day. In addition to falls, the number of water rewards earned, defined as licking/drinking water from the platform for ≥1 sec, were counted. All trials were recorded using a system of 4 bullet cameras (KT&C; model KPCS190SH Black/White Bullet Camera with ⅓″ SONY Super HAD CCD) with rotatable bases that were fastened to the outer support frame of the outer side of the apparatus by hand clamps. Performance measures were analyzed by video playback by experimenters blind to the lesion status and treatment regimen of the rats
Donepezil and idalopirdine were dissolved in 5% 2-hydroxypropyl-beta-cyclodextrin vehicle solution. Rats were divided into the following drug administration groups (14 per group, 7 per sex): sham-lesioned and administered vehicle (SH/VEH), DL and vehicle (DL/VEH), DL and donepezil (DL/DON), DL and idalopirdine (DL/IDL), and DL and idalopirdine plus donepezil (DL/DON+IDL). Solutions were prepared the night before administration and were replaced every 6 days. DON and IDL were dissolved in the same solution for the combination treatment. […]

[2] = test system: patients with AD; details: compared to donepezil treated patients; cited from earlier work
[3] = test system: DL rats (dual striatal-dopaminergic, cortical cholinergic system lesions); assay: MCMCT rotating rod with passive doorframe distractor (test days 6, 7, 11); format: in vivo, Sprague Dawley rats; details: compared with SH/VEH rats
Description: Of the 70 rats, 56 (28 females and 28 males) received dual striatal-dopaminergic, corticalcholinergic system lesions (DL) and were randomly assigned to 4 treatment conditions after surgeries (n=14/group, 7/sex). 14 rats (7/sex) received sham lesions. 6-OHDA was delivered bilaterally to dopamine terminals in the dorsal striatum (Sigma-Aldrich; 6.0 μg/2 μL/infusion, bolus; dissolved in 0.9% NaCl with 0.1% ascorbic acid; two infusion sites per hemisphere: AP+1.2 and +0.2 mm; ML ±2.5 and ±3.0 mm relative to bregma; DV −4.8 and −5.0 mm from skull). […]
Complex movement performance measures including fall propensity were assessed using the MCMCT (for details and an illustration see Kucinski, A. et al (2013) Modelling fall propensity in Parkinson's disease: Deficits in the attentional control of complex movements in rats with cortical-cholinergic and striatal-dopaminergic deafferentation. J Neurosci, 33, 16522-16539). […]
Falls, slips, and traversal time were assessed as described in Kucinski, A. et al (2013) Modelling fall propensity in Parkinson's disease: Deficits in the attentional control of complex movements in rats with cortical-cholinergic and striatal-dopaminergic deafferentation. […] A slip was scored when any of the rats' paws lost contact with the surface of the rod and extended below the lower horizontal border of the rod. […]

[4] = test system: DL rats (dual striatal-dopaminergic, cortical cholinergic system lesions); assay: MCMCT rod traversal, stationary and rotating rod (test days 2-5), Example 1; format: in vivo, Sprague Dawley rats; details: for number of slips: rod days 2-5, DL/VEH 2.04+0.16, SH/VEH 1.60+0.11; for traversal speed (time per rod traversal): rod days 2-5, DL/VEH 4.62±0.25 s, SH/VEH 3.96±0.19 s, mean±SEM; for frequency of falls during rod traversal: s.c. 30 min before MCMCT, across all rod conditions days 2-5, compared with DL/VEH
Description: Adult male and female Sprague Dawley rats (Harlan; N=70; 35 males and 35 females) between 3 and 6 months of age were individually housed in opaque single standard cages (27.70 cm×20.30 cm) in a temperature- and humidity-controlled environment (23° C., 45%). […] The animals were maintained under a 12:12 hour light/dark schedule (lights on at 8:00 AM). Food (Rodent Chow; Harlan Teklad) was available ad libitum. Water access was gradually restricted over a 7-day period (12, 8, 5, 3, 1, 0.5, 0.25 hrs of water access per day) in the week before pre- and postsurgery behavioral testing. During testing, water was provided as rewards for correct responses during SAT performance and following beam traversals on the MCMCT (see below). Rats were also provided water ad libitum for 15 min following SAT performance each day.
Following pre-surgery training, animals underwent stereotaxic lesion surgeries followed by 4 weeks of recovery. During the final week of recovery animals were gradually water restricted. Drug effects were then assessed with 12 consecutive days of SAT and MCMCT sessions (see Table 1 for the battery of MCMCT test conditions):
Drug or vehicle injections were administered 30 minutes prior to SAT performance (˜9:30 injections, SAT testing 10:00-10:45 a.m.) and in the afternoon before MCMCT testing (˜3:30-6:00 p.m.). For the MCMCT runs, rats were injected individually so that trials began exactly 30 minutes after injection for each animal.
as §1
Complex movement performance measures including fall propensity were assessed using the MCMCT (for details and an illustration see Kucinski, A. et al (2013) Modelling fall propensity in Parkinson's disease: Deficits in the attentional control of complex movements in rats with cortical-cholinergic and striatal-dopaminergic deafferentation. J Neurosci, 33, 16522-16539). This beam traversal apparatus was designed to tax the ability of rats to perform attention demanding movements and correct for stepping errors while crossing a narrow square rod surface (2.54 cm2). The ends of the beam (2.0 m length) were held in sockets that allowed the rod to be rotated by a gear motor (10 RPM) coupled to one end of the beam element. Traversal of the rod, particularly when rotating, reliably generated falls and other movement impairments in rats with dual lesions of striatal dopaminergic and cortical cholinergic inputs. A flat plank surface (13.3 cm wide) was also used to assess basic motor capacity and for habituation to the apparatus. Two identical platforms (23.0×31.5 cm area) situated at the opposite ends of the beam were surrounded by retractable walls (27.0 cm height) to form end-box structures. The walls are raised and lowered manually and secured in position by a friction clamp which rides in a vertical slot in the support structure under the platform. […]

SMILES: Fc1ccc2c(CCNCc3cccc(OCC(F)(F)C(F)F)c3)c[nH]c2c1 [IDL, N-(2-(6-fluoro-1H-indol-3-yl)ethyl)-3-(2,2,3,3-tetrafluoropropoxy) benzylamine]
- rod traversal performance in the presence of the active distractor ([1]; DL rats): did not significantly improve the performance
- number of animals that retrieved water in at least one trial [1]: 11
- secondary endpoints including measures of global impression and daily living activities [2]: positive results
- doorframe-associated falls (fall rates in the presence of the doorframe) [3]: experienced more doorframe-associated falls than SH/VEH rats
- number of slips [4]: 2.51+0.38
- traversal speed (time per rod traversal) [4]: 5.48 ± 0.45 s
- frequency of falls during rod traversal [4]: fell as frequently as untreated DL rats

SMILES: COc1cc2c(cc1OC)C(=O)C(CC1CCN(Cc3ccccc3)CC1)C2 (centres unmarked) [DON, donepezil]
- rod traversal performance in the presence of the active distractor ([1]; DL rats): did not significantly improve the performance
- water retrieval count ([1]; DL rats, multiple comparisons (FIG. 3B)): not significantly lower than DL/VEH
- number of animals that retrieved water in at least one trial [1]: 10
- doorframe-associated falls (fall rates in the presence of the doorframe) [3]: experienced more doorframe-associated falls than SH/VEH rats
- number of slips [4]: 2.04+0.14
- traversal speed (time per rod traversal) [4]: 4.48 ± 0.36 s
- frequency of falls during rod traversal [4]: tended to be lower than in DL/VEH rats but the effect did not reach significance
